Laboratory results reported in patent publication US12076304B2, “Compositions comprising 15-HEPE and methods of treating or preventing hematologic disorders, and/or related diseases” (priority 2020, dated 2024).
“Also recorded” adds a separate entry of the source.

Experiments:
NAFLD patients [1] = assay: Phase IIa study in NAFLD patients: metabolic and glycemic parameters; type: in vivo, human
Experimental: (§1) The study was planned to include 96 evaluable patients with 32 patients randomized per treatment group.
HOMA-IR/Adipo-IR: HOMA-IR/Adipo-IR levels are a method of measuring insulin resistance. HOMA-IR is calculated by multiplying fasting plasma insulin (FPI) by fasting plasma glucose (FPG), then dividing by the constant 405. Adipo-IR is calculated by multiplying fasting non-esterified fatty acids (NEFA)×fasting insulin. Blood samples were taken to assess HOMA-IR and Adipo-IR at Visit 2/Baseline, Visit 3/Week 2, Visit 4/Week 4, Visit 6/Week 8, Visit 8/Week 12, Visit 10/Week16 and Follow up Visit 11/Week 20. All subjects were required to have been fasted for a minimum of 8 hours prior to blood sampling. If subjects had not fasted for a minimum of 8 hours, the duration of fasting time was recorded, and subjects encouraged to fast appropriately for the next clinical visit.
Exploratory analysis: The exploratory analysis included analysis of lipid and metabolic parameters including total cholesterol, triglycerides, very low-density lipoprotein cholesterol (VLDL-C), low density lipoprotein cholesterol (LDL-C), high density lipoprotein cholesterol (HDL-C), non-high-density lipoprotein cholesterol (non-HDL-C), remnant-like particle cholesterol (RLP-C), fasting glucose, insulin, free fatty acids and hemoglobin A1C (HbA1C). Additional exploratory analysis included high throughput lipidomics and proteomics.

NAFLD patients [2] = assay: Phase IIa study in NAFLD patients: OWL liver care test; type: in vivo, human
Text: as §1
OWL Liver Care is a test that was developed based on the plasma lipidomics in biopsy-confirmed NASH patients and provides high predictive values. OWL Liver Care has an area under the curve (AUC) of 0.88 for distinguishing NAFLD and normal liver patients and an AUC of 0.79 for distinguishing NAFLD without steatohepatitis and NASH patients.

NAFLD patients [3] = assay: Phase IIa study in NAFLD patients: panel of protein biomarkers (proteomics); type: in vivo, human
Text: as §1

[4] = tested on: cholestasis induced by BDL; assay: BDL mice: serum biochemistry (ALT, total bilirubin); type: in vivo; conditions: for Serum ALT / Serum Total Bilirubin: n = 8
Experimental: Sample Collection: For serum samples, non-fasting blood was collected in serum separate tubes without anticoagulant through direct cardiac puncture and centrifuged at 3,500×g for 4 minutes at 4° C. The supernatant was collected and stored at −80° C. for biochemistry (30 μL) and shipping (all the remaining). For liver samples, left lateral lobe was collected and cut into 6 pieces. Two pieces of left lateral lobe were fixed in Bouin's solution and then embedded in paraffin. Samples were stored at room temperature for histological analysis. The other 2 pieces of left lateral lobe were embedded in O.C.T. compound and quick frozen in liquid nitrogen. Samples were stored at −80° C. The remaining pieces of left lateral lobe was snap frozen in liquid nitrogen and stored at −80° C. for gene expression analyses. Right medial lobe, left medial lobe, right lobe and caudate lobe were snap frozen in liquid nitrogen and stored at −80° C. for shipping.

TGF-β mRNA = assay: BDL mice liver quantitative RT-PCR, TGF-β; type: in vivo; conditions: for TGF-β relative mRNA expression level: BDL mice liver, normalized to 36B4, Sham 1.00, mean ± SD
Experimental: (§2) Quantitative RT-PCR: Total ribonucleic acid (RNA) was extracted from liver samples using RNAiso (Takara Bio, Japan) according to the manufacturer's instructions. One μg of RNA was reverse-transcribed using a reaction mixture containing 4.4 mM magnesium chloride (MgCl2) (F. Hoffmann-La Roche, Switzerland), 40 U RNase inhibitor (Toyobo, Japan), 0.5 mM dNTP (Promega, USA), 6.28 μM random hexamer (Promega), 5× first strand buffer (Promega), 10 mM dithiothreitol (Invitrogen, USA) and 200 U MMLV-RT (Invitrogen) in a final volume of 20 μL. The reaction was carried out for 1 hour at 37° C., followed by 5 minutes at 99° C. Real-time PCR was performed using real-time PCR DICE and TB Green™ Premix Ex Taq™ II (Takara Bio). To calculate the relative mRNA expression level, the expression of each gene (α-SMA, TIMP-1, TGF-β and Collagen Type 1) was normalized to that of reference gene 36B4 (gene symbol: Rplp0). Information regarding the PCR-primer sets and the plate layout are described in Tables 8 and 9.

Collagen Type 1 mRNA = assay: BDL mice liver quantitative RT-PCR, Collagen Type 1; type: in vivo; conditions: for Collagen Type 1 relative mRNA expression level: BDL mice liver, normalized to 36B4, Sham 1.00, mean ± SD
Experimental: as §2

[5] = 1 g or 2 g per day, baseline to Week 16 vs placebo
[6] = 1 g per day, baseline diagnosis NASH (19 at baseline)
[7] = 1 g per day, baseline diagnosis No NAFLD (4 at baseline)
[8] = 1 g per day, baseline diagnosis Steatosis (5 at baseline)
[9] = 2 g per day, baseline diagnosis NASH (12 at baseline)
[10] = 2 g per day, baseline diagnosis No NAFLD (3 at baseline)
[11] = 2 g per day, baseline diagnosis Steatosis (14 at baseline)
[12] = 50 mg/kg PO QD Day 0-13, Day 14, mean ± SD
[13] = 250 mg/kg PO QD Day 0-13, Day 14, mean ± SD
[14] = 500 mg/kg PO QD Day 0-13, Day 14, mean ± SD
[15] = BDL mice, DS102 treatment groups as a whole

Substance: 15-HEPE [DS102]
- insulin sensitivity and glycemic control (NAFLD patients [1]; 1 g or 2 g per day, 16 weeks): improvement
- markers of metabolic overload (NAFLD patients [1]; 1 g or 2 g per day, 16 weeks): statistically significant reduction
- insulin resistance indices (HOMA-IR and adipo-IR levels) (NAFLD patients [1]; 1 g or 2 g per day, Week 16): improvement
- HbA1c levels / glycemic control (NAFLD patients [1]; [5]): clinically significant improvements
- insulin, glucose, and free fatty acid levels (NAFLD patients [1]; [5]): reduction
- insulin resistance indices (HOMA-IR and adipo-IR levels) (NAFLD patients [1]; 2 g per day, Week 16, Per Protocol Set): significant improvements
- OWL test Change in Diagnosis (Week 16 vs. baseline): Improvement, patients (NAFLD patients [2]; [6]): 5
- OWL test Change in Diagnosis (Week 16 vs. baseline): Stable, patients (NAFLD patients [2]; [6]): 14
- OWL test Change in Diagnosis (Week 16 vs. baseline): Stable, patients (NAFLD patients [2]; [7]): 3
- OWL test Change in Diagnosis (Week 16 vs. baseline): Worsening, patients (NAFLD patients [2]; [7]): 1
- OWL test Change in Diagnosis (Week 16 vs. baseline): Stable, patients (NAFLD patients [2]; [8]): 2
- OWL test Change in Diagnosis (Week 16 vs. baseline): Worsening, patients (NAFLD patients [2]; [8]): 3
- OWL test Change in Diagnosis (Week 16 vs. baseline): Improvement, patients (NAFLD patients [2]; [9]): 5
- OWL test Change in Diagnosis (Week 16 vs. baseline): Stable, patients (NAFLD patients [2]; [9]): 7
- OWL test Change in Diagnosis (Week 16 vs. baseline): Stable, patients (NAFLD patients [2]; [10]): 2*, **
- OWL test Change in Diagnosis (Week 16 vs. baseline): Worsening, patients (NAFLD patients [2]; [10]): 1
- OWL test Change in Diagnosis (Week 16 vs. baseline): Improvement, patients (NAFLD patients [2]; [11]): 1
- OWL test Change in Diagnosis (Week 16 vs. baseline): Stable, patients (NAFLD patients [2]; [11]): 9
- OWL test Change in Diagnosis (Week 16 vs. baseline): Worsening, patients (NAFLD patients [2]; [11]): 4
- OWL liver care diagnosed NASH (NAFLD patients [2]; NAFLD patients, dose dependent, vs placebo at Week 16): significantly improved and normalized
- TR (protein level) (NAFLD patients [3]; 1 g): significant reductions
- proteins that passed the 1st threshold based on the Benjamini-Hochberg testing (NAFLD patients [3]; 1 g group, Placebo group 0 proteins): 1
- NASH drug development targets (CCR215 signaling, Galectin3, AOC3) (NAFLD patients [3]; 2 g): decreased
- inflammatory and pro-fibrotic proteins (protein expression) (NAFLD patients [3]; 2 g, Table 21: PAI-1, TIMP-1, DPP4, TLT2, CCL16, MCP-1, SAA4, PI3, TR, LILRB1, TNRSF11A, Table 22: TL12, AOC3, PRSS2): decreased
- number of markers (inflammation, fibrosis, lipid metabolism, apoptosis, chemotaxis) with significantly downregulated expression (NAFLD patients [3]; 2 g, panel of greater than 350 protein biomarkers): over 150
- expression of multiple circulating chemokines (NAFLD patients [3]; NAFLD patients, vs placebo): decreased
- expression of multiple proteins associated with increased cardiovascular risk (NAFLD patients [3]; NAFLD patients, vs placebo): decreased
- expression of multiple tumor necrosis factor receptor superfamily members (NAFLD patients [3]; NAFLD patients, vs placebo): decreased
- expression of multiple vascular adhesion molecules (NAFLD patients [3]; NAFLD patients, vs placebo): decreased
- Serum ALT [4, 12]: 402 ± 112 U/L
- Serum Total Bilirubin [4, 12]: 26.8 ± 6.9 mg/dL
- Serum ALT [4, 13]: 351 ± 155 U/L
- Serum Total Bilirubin [4, 13]: 23.5 ± 9.8 mg/dL
- Serum ALT [4, 14]: 383 ± 147 U/L
- Serum Total Bilirubin [4, 14]: 26.2 ± 6.1 mg/dL
- serum ALT level vs Vehicle group ([4]; 50, 250 and 500 mg/kg PO QD): no significant differences
- serum total bilirubin level vs Vehicle group ([4]; 50, 250 and 500 mg/kg PO QD): no significant differences
- TGF-β relative mRNA expression level (TGF-β mRNA; 50 mg/kg PO QD Day 0-13): 1.48 ± 0.48
- TGF-β relative mRNA expression level (TGF-β mRNA; 250 mg/kg PO QD Day 0-13): 1.50 ± 0.44
- TGF-β relative mRNA expression level (TGF-β mRNA; 500 mg/kg PO QD Day 0-13): 1.00 ± 0.23
- TGF-β mRNA expression level compared with the Vehicle group (TGF-β mRNA; BDL mice, 500 mg/kg PO QD Day 0-13): significant decrease
- TGF-β mRNA expression level, Vehicle group vs the DS102 treatment groups (TGF-β mRNA; [15]): no significant differences
- Collagen Type 1 relative mRNA expression level (Collagen Type 1 mRNA; 50 mg/kg PO QD Day 0-13): 4.94 ± 2.76
- Collagen Type 1 relative mRNA expression level (Collagen Type 1 mRNA; 250 mg/kg PO QD Day 0-13): 4.21 ± 1.90
- Collagen Type 1 relative mRNA expression level (Collagen Type 1 mRNA; 500 mg/kg PO QD Day 0-13): 2.51 ± 1.39
- Collagen Type 1 mRNA expression level compared with the Vehicle group (Collagen Type 1 mRNA; BDL mice, 500 mg/kg PO QD Day 0-13, 500 mg/kg): tended to decrease; also recorded: trend approaching significance
- Collagen Type 1 mRNA expression level, Vehicle group vs the DS102 treatment groups (Collagen Type 1 mRNA; [15]): no significant differences
